The text below walks through data of publication PMC11574061, “Experimental and computational studies on possibility of using glucose diazacrown cryptand as a carrier for anticancer drugs busulfan and lomustine” (Scientific Reports, 2024).

SMILES strings stand for the structures. Converted amounts (≈) assume the structure as drawn. Where two headings read alike, the source gives them in different places.

The nature of data set [1]: Approximate water solubility, stepwise addition of water. It is filed as physicochemical. The following applies: thermodynamic from solid; in water; estimated approximately, 1 mg substance, water added in 0.1 ml portions until clear. How it is done: The complexes were prepared according to the procedure described in a previous publication for the complex of another cryptand with BSF[7]. A solution of 2.5 mg (0.01 mmol) BSF in 0.25 ml DMSO was added under argon to a solution of 9.8 mg (0.01 mmol) cryptand 9 (L1) in 12.5 ml water at room temperature. […] The water solubility of the pure cryptand L1, both drugs and their complexes was estimated approximately using a simple method. For each compound separately, 1 mg of the substance was placed in a vial and water was added to it in portions of 0.1 ml. After each addition, the mixture was stirred for 10 min, and the clarity of the solution was checked with a magnifying glass. Stirring was stopped when the solution became completely clear.

In data set [2] the test system is normal colon fibroblasts CCD-18Co. Put plainly: MTT cytotoxicity assay, CCD-18Co. The following applies: 72 h. Type of data set: cell-based, human. How it is done: (§1) Breast cancer cells MCF-7, colon cancer cells HT-29, normal breast epithelial cells MCF-10 A and normal colon fibroblasts CCD-18Co were used as a cell model for testing the effect of compounds on the viability of cells. The cells were seeded in Dulbecco’s Modified Eagle Medium (DMEM) medium in 96-well plates and incubated for 24 h in a 5% CO2 atmosphere at 37 °C. MCF-10 A cells were grown in a medium supplemented with 0.4% bovine pituitary extract (BPE), 3 ng ml^− 1 hEGF, 5 µg ml^− 1 insulin, 0.5 µg ml^− 1 hydrocortisone and 100ng mL^− 1 cholera toxin. After that, cells were treated with different concentrations: 2.5, 10, 25, 50, 100, and 200 µM, of compounds for 72 h. Busulfan and lomustine were freshly dissolved in DMSO immediately before cell treatment. The solution of other compounds (lyophilized) were prepared in 30% DMSO. Then, a series of dilutions were prepared. The final concentrations of drugs, cryptand and complexes were in range 2.5–200 µM. The final concentration of DMSO diluted in culture medium was 0.2% for all experiments. The controls (without drugs) were treated with 0.2% DMSO. In this concentration DMSO was not cytotoxic for cells which was confirmed by preliminary experiments. The viability of cells treated with the tested compounds was assessed by measuring the ability of live cells to metabolize 3-(4,5-dimethylthiazolo-2-yl)-2,5-diphenyl tetrazolium bromide (MTT) to formazan, using a standard protocol. Briefly, after incubation with compounds, the medium of each well was discarded, cells were washed with PBS, and then 100 µL of fresh media with 10 µL MTT solution (5 mg mL^− 1 in PBS) was added to each well. After 4 h incubation at 37 °C, the produced formazan was solubilized by the addition of DMSO, and the absorbance of each well was determined at 570 nm using an ELISA reader. The results were expressed as the mean of at least four replicates as a percentage of control (taken as 100% - cells).
Background: Tetrazolium dyes change colour on reduction, which living cells bring about.

Another data set relates to colon cancer cells HT-29. Kind of data set: MTT cytotoxicity assay, HT-29. Type of data set: cell-based, human. How it is done: as §1
Data set [3] relates to normal breast epithelial cells MCF-10 A. Put plainly: MTT cytotoxicity assay, MCF-10 A. The following applies: 72 h. Type of data set: cell-based, human. The method, then: as §1
In data set [4] the test system is breast cancer cells MCF-7. Put plainly: MTT cytotoxicity assay, MCF-7. It is filed as cell-based, human. The method, then:
as §1

Setting [5] is: CCD-18Co normal colon cells, MTT, 2.5–200 µM, mean ± SD, – = IC50 not reached in the range used.
The mark [6] stands for this setting: Homo sapiens, CCD-18Co, read-out: IC50.
Setting [7] is: HT-29 colon cancer cells, 72 h, MTT, 2.5–200 µM, mean ± SD, – = IC50 not reached in the range used.
Where [8] appears, read: Homo sapiens, HT-29, 72 h, read-out: IC50.
[9] abbreviates: Homo sapiens, MCF-10A, read-out: IC50.
The mark [10] stands for this setting: MCF-10 A normal breast cells, MTT, 2.5–200 µM, mean ± SD, – = IC50 not reached in the range used.
Setting [11] is: Homo sapiens, MCF7, 72 h, read-out: IC50.
Where [12] appears, read: MCF-7 breast cancer cells, 72 h, MTT, 2.5–200 µM, mean ± SD, – = IC50 not reached in the range used.

Take `CS(=O)(=O)OCCCCOS(C)(=O)=O` [BSF, butane-1,4-diyl dimethanesulfonate]: the solubility (as a rule, how much of the substance goes into solution per volume) in data set [1] is 130 µg/mL. Also, the IC50 (in general, the concentration at which inhibition is half-maximal) was “not achieved” in data set [2] (setting [5]); above 200 µM in data set [2] (setting [6]); “not achieved” in the data set with colon cancer cells HT-29 (setting [7]); above 200 µM with colon cancer cells HT-29 (setting [8]); above 200 µM in data set [3] (setting [9]); “not achieved” in data set [3] (setting [10]). The concentration for half-maximal inhibition (IC50) in data set [4] (setting [11]) is above 200 µM; in data set [4] (setting [12]), “not achieved”.
Take `O=C1NCC2OC(NC(=O)N3CCOCCOCCN(CCOCCOCC3)C(=O)NC3OC(CNC(=O)N4CCOCCOCCN1CCOCCOCC4)C(O)C(O)C3O)C(O)C(O)C2O` (stereo not shown) [L1]: the solubility in data set [1] was 20000 µg/mL (≈ 20.3 mM). In addition, the IC50 entry (in data set [2] (setting [5]); in the data set on colon cancer cells HT-29 (setting [7]); in data set [3] (setting [10]); in data set [4] (setting [12])) was “had not been reached” in each case.
As for `O=NN(CCCl)C(=O)NC1CCCCC1` [CCNU, 1-(2-chloroethyl)-3-cyclohexyl-1-nitrosourea], the solubility in data set [1] is 50 µg/mL (≈ 0.214 mM). Besides, the IC50 was determined as 56.2 ± 7.8 µM in data set [2] (setting [6]), 8.91 ± 1.5 µM in the data set on colon cancer cells HT-29 (setting [8]), 48.9 ± 5.4 µM in data set [3] (setting [9]) and 8.41 ± 1.6 µM in data set [4] (setting [11]).
